Source: patent publication US20250235545A1, “POLYPEPTIDE CONJUGATE AND USE THEREOF” (SHANGHAI CHIXI BIOMEDICAL TECHNOLOGY CO., LTD, priority 2024, published 2025)
In brackets after ≈: the same amount, converted by molar mass. Like-named read-outs stand apart in the source and are kept apart here.

How the values were obtained:
[1] = system: A2780 (ovarian cancer); test: cells; format: cell-based; conditions: CCK8, 48 h; for IC50 A2780 (ovarian cancer): Table 1; for IC50 Ovarian cancer tissue (A2780): Table 6
Description: (§1) Different types of cells were cultured with complete media (RPMI1640 (DMEM high sugar medium)+10% fetal bovine serum+1XP/S+sodium pyruvate 1 mM solution) in an incubator at 37° C. and 5% CO2 until the cells grew to a sufficient number, and the cells were collected, centrifuged at 1,000 g for 5 min, resuspended with an appropriate volume of a 10% RMPI1640 (DMEM high sugar medium) medium and counted. In a 96-well culture plate, 100 μL of cell culture fluid containing different concentrations of drugs was added, control wells (0.1% DMSO) with only corresponding drug solvents without drugs, as well as blank wells (Blank) with only the medium but without cells were set, and three parallel wells were set in each group. After that, the cells after cell counting were inoculated onto 96-well culture plates, with 100 μL of cell suspension per well, and an inoculation concentration of the cells was 5,000 cells (100 μL)/well. The plates were then cultured in a CO2 (5%) incubator at 37° C. for 48 h. After 48 h, 10 μL of a cell proliferation staining reagent (CCK8) was added to each well, the plates were incubated in a cell incubator for around 2 h, and an absorbance at 450 nm was detected.
(§2) Cell survival rates and median inhibitory concentrations of the drugs on the cells were calculated.
as §1, with “serum+1×P/S+sodium” for “serum+1XP/S+sodium”, “adjusted to an appropriate density.” for “counted.”
(§3) Cell survival rates and median inhibitory concentrations (IC50) of the drugs on the cells were calculated.

[2] = system: A549 (non-small cell lung cancer); test: cells; format: cell-based; conditions: CCK8, 48 h; for IC50 A549 (non-small cell lung cancer): Table 1; for IC50 Non-small cell lung cancer tissue (A549): Table 6
Description: as §1, §2
as §1, with “serum+1×P/S+sodium” for “serum+1XP/S+sodium”, “adjusted to an appropriate density.” for “counted.”
as §3

[3] = system: SJSA-1 (sarcoma tissue); test: cells; format: cell-based; conditions: CCK8, 48 h; for IC50 SJSA-1 (sarcoma tissue): Table 1; for IC50 Sarcoma tissue (SJSA-1): Table 6
Description: as §1, §2
as §1, with “serum+1×P/S+sodium” for “serum+1XP/S+sodium”, “adjusted to an appropriate density.” for “counted.”
as §3

[4] = system: SKBR3 (breast cancer tissue); test: cells; format: cell-based; conditions: CCK8, 48 h; for IC50 SKBR3 (breast cancer tissue): Table 1; for IC50 Breast cancer tissue (SKBR3): Table 6
Description: as §1, §2
as §1, with “serum+1×P/S+sodium” for “serum+1XP/S+sodium”, “adjusted to an appropriate density.” for “counted.”
as §3

[5] = system: colo320 (colorectal cancer tissue); test: cells; format: cell-based; conditions: CCK8, 48 h; Table 6
Description: as §1, with “serum+1×P/S+sodium” for “serum+1XP/S+sodium”, “adjusted to an appropriate density.” for “counted.”
as §3

[6] = system: sarcoma SJSA-1 tumor model; conditions: 5 mg/kg once a week for three weeks
Description: Test objective: To investigate the antitumor efficacy of the above compounds in an animal tumor model of sarcoma SJSA-1.
(§4) Test drug: Polypeptide conjugate, Irinotecan, Belotecan and normal saline control group.
(§5) Test animals: 6-8 weeks old BALB/c mice, all female.
(§6) SJSA-1 cells were purchased from ATCC and cultured in a DMEM medium containing 10% fetal bovine serum at 37° C. in 5% CO2. Passaging was performed every three days, and cells within 15 generations were used. 2×10^7 corresponding cells were injected into right chests of nude mice subcutaneously. After a volume of the tumors reached at least 100 mm^3, the mice were grouped randomly, with three mice in each group. Then treatment was started, and the day when the treatment was started was the first day. […] The control group was administered with normal saline. Administration was performed once a week for three weeks.
as §6

[7] = system: colo320 colorectal cancer tumor model; conditions: 5 mg/kg once a week for four weeks
Description: Test objective: To investigate the antitumor efficacy of the above compounds in an animal tumor model of colo320 colorectal cancer.
as §4, §5
Passaging was performed every three days, and cells within 15 generations were used. 7.5×10^6 corresponding cells were injected into right chests of nude mice subcutaneously. After a volume of the tumors reached at least 120 mm^3, the mice were grouped randomly, with three mice in each group. Then treatment was started, and the day when the treatment was started was the first day. […] The control group was administered with normal saline. Administration was performed once a week for four weeks.

[8] = MTD determination in mice (Examples 27, 36, 44); format: in vivo; conditions: mice, monitored for 14 d
Description: Test animals: 6-8 weeks old mice, all female; mice were grouped randomly, with six mice in each group, administered with drugs at different concentration gradients separately and monitored for 14 d. A mouse was euthanized at a loss of 20% of its initial weight and deemed to have died of poisoning.

SMILES | IC50 A2780 (ovarian cancer) [1] [µg/mL] | IC50 Ovarian cancer tissue (A2780) [1] [µg/mL] | IC50 A549 (non-small cell lung cancer) [2] [µg/mL] | IC50 Non-small cell lung cancer tissue (A549) [2] [µg/mL] | IC50 SJSA-1 (sarcoma tissue) [3] [µg/mL] | IC50 Sarcoma tissue (SJSA-1) [3] [µg/mL] | IC50 SKBR3 (breast cancer tissue) [4] [µg/mL] | IC50 Breast cancer tissue (SKBR3) [4] [µg/mL] | IC50 Colorectal cancer tissue (colo320) [5] [µg/mL] | Mouse weight (%) ([6]; Table 2) | SJSA-1 (sarcoma tissue) mean tumor volume (mm^3) ([6]; Table 2) | SJSA-1 (sarcoma) Growth rate (%) ([6]; Table 2) | Mouse weight (%) ([6]; Table 7) | SJSA-1 (sarcoma tissue) growth rate (%) ([6]; Table 7) | SJSA-1 (sarcoma tissue) mean tumor volume (mm^3) ([6]; Table 7) | Mouse weight (%) ([7]; Table 3) | colo320 (colorectal cancer cell) growth rate (%) ([7]; Table 3) | colo320 (colorectal cancer cell) mean tumor volume (mm^3) ([7]; Table 3) | Mouse weight (%) ([7]; Table 8) | colo320 (colorectal cancer cell) growth rate (%) ([7]; Table 8) | further results
CCCNCCc1c2c(nc3ccccc13)-c1cc3c(c(=O)n1C2)COC(=O)[C@]3(O)CC [D3] | 0.021 (≈ 0.0484 µM) | 0.021 (≈ 0.0484 µM) | 0.026 (≈ 0.06 µM) | 0.026 (≈ 0.06 µM) | 0.029 (≈ 0.0669 µM) | 0.029 (≈ 0.0669 µM) | 0.049 (≈ 0.113 µM) | 0.049 (≈ 0.113 µM) | 0.040 (≈ 0.0923 µM) | −5% | 1378.4 | 1192.71 | −5% | 1192.71 | 1378.4 | +7% | 872.19 | 966 | +7% | 872.19 | colo320 (colorectal cancer cell) mean tumor volume (mm^3) ([7]; Table 8): 966 mm^3; MTD ([8]; Table 4): 25 mg/kg; MTD ([8]; Table 9): 25 mg/kg
CCCCNCCc1c2c(nc3ccccc13)-c1cc3c(c(=O)n1C2)COC(=O)[C@]3(O)CC [D4] | 0.029 (≈ 0.0648 µM) | 0.029 (≈ 0.0648 µM) | 0.043 (≈ 0.0961 µM) | 0.043 (≈ 0.0961 µM) | 0.054 (≈ 0.121 µM) | 0.054 (≈ 0.121 µM) | 0.076 (≈ 0.17 µM) | 0.076 (≈ 0.17 µM) | 0.078 (≈ 0.174 µM) | −7% | 1269.4 | 1098.39 | −7% | 1098.39 | 1269.4 | +5% | 945.77 | 1047.5 | +5% | 945.77 | colo320 (colorectal cancer cell) mean tumor volume (mm^3) ([7]; Table 8): 1047.5 mm^3; MTD ([8]; Table 4): 30 mg/kg; MTD ([8]; Table 9): 30 mg/kg
CC[C@@]1(O)C(=O)OCc2c1cc1n(c2=O)Cc2c-1nc1ccccc1c2CCNCC(C)C [D5] | 0.014 (≈ 0.0313 µM) | 0.014 (≈ 0.0313 µM) | 0.019 (≈ 0.0425 µM) | 0.019 (≈ 0.0425 µM) | 0.012 (≈ 0.0268 µM) | 0.012 (≈ 0.0268 µM) | 0.013 (≈ 0.029 µM) | 0.013 (≈ 0.029 µM) | 0.029 (≈ 0.0648 µM) | −5% | 1443.2 | 1248.78 | −5% | 1248.78 | 1443.2 | +8% | 991.91 | 1098.6 | +8% | 991.91 | colo320 (colorectal cancer cell) mean tumor volume (mm^3) ([7]; Table 8): 1098.6 mm^3; MTD ([8]; Table 4): 30 mg/kg; MTD ([8]; Table 9): 30 mg/kg
CC[C@@]1(O)C(=O)OCc2c1cc1n(c2=O)Cc2c-1nc1ccccc1c2CCNC1CC1 [D6] | 0.0029 (≈ 0.00672 µM) | 0.0029 (≈ 0.00672 µM) | 0.0025 (≈ 0.00579 µM) | 0.0025 (≈ 0.00579 µM) | 0.0018 (≈ 0.00417 µM) | 0.0018 (≈ 0.00417 µM) | 0.0038 (≈ 0.00881 µM) | 0.0038 (≈ 0.00881 µM) | 0.0048 (≈ 0.0111 µM) | +4% | 961.3 | 828.71 | +4% | 831.80 | 961.3 | −4% | 715.73 | 787.3 | −4% | 710.84 | colo320 (colorectal cancer cell) mean tumor volume (mm^3) ([7]; Table 8): 787.3 mm^3; MTD ([8]; Table 4): 10 mg/kg; MTD ([8]; Table 9): 10 mg/kg
